In US10030012B2, “Piperidin-1-yl and azepin-1-yl carboxylates as muscarinic M4 receptor agonists” (Heptares Therapeutics Limited, priority 2013, dated 2018):

Experiments:
human M4 receptor = human M4 receptor (Homo sapiens (Human), UniProt P08173); experiment: In vitro M4 functional assay (intracellular calcium, FLiPR Tetra); format: cell-based; conditions: for EC50: CHOK1 cells stably expressing human M4 receptor and Gα16, calcium flux; for Emax: relative efficacy to an EC100 concentration of acetylcholine, read-out: M4 % RE
Chain of human M4 receptor (P08173 whole entry): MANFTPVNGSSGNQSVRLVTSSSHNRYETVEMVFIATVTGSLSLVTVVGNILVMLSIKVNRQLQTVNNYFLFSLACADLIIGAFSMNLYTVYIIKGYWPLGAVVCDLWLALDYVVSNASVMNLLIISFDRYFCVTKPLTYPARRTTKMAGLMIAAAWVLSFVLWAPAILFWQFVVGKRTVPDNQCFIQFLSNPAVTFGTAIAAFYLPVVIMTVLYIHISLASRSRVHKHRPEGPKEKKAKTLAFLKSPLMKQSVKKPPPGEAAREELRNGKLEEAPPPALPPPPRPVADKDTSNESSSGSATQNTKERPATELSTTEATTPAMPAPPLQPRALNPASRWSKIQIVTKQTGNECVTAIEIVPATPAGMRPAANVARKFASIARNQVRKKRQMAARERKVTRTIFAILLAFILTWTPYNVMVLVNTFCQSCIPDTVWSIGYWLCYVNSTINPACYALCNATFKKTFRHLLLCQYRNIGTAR
Procedure: (§1) In Vitro M4 &M2 Functional Assay
(§2) The functional activity of compounds at the M4 and M2 receptors was determined by measuring changes in the level of intracellular calcium ions caused by signalling cascades mediated by the receptor. Intracellular Calcium levels were measured using a calcium sensitive fluorescent dye, calcium 5 (Molecular Devices) The changes in fluorescence were monitored by a fluorescent imager, FLiPR Tetra (Molecular devices). Increases in intracellular calcium were readily detected upon activation of both receptors by the muscarinic receptor agonist Acetylcholine.
(§3) CHOK1 cells stably expressing human M4 or M2 receptor and co-expressing the accessory g-protein Gα16 were routinely grown as monolayers in Hams-F12 medium (Invitrogen) supplemented with 10% foetal bovine serum (FBS) (Hyclone), 500 ug/mL Geneticin and 250 ug/mL zeocin (both invitrogen) in 5% CO2 at 37° C. Once confluent is cells cryopreserved by freezing at −186° C. in freezing solution (90% FBS 10% DMSO) (Sigma-Aldrich Co.). Twenty-four hours prior to testing cells resuscitated and freezing media removed via centrifugation, cells then seeded in a black walled clear bottom 384 well plates (Corning) at a density of 15,000 cells/well in Hams F12 media supplemented with 10% FBS. On the day of assay, growth media was removed and replaced with 63 μl of Calcium 5 dye solution (Molecular Devices) in assay buffer (HBSS, 20 mM HEPES, 0.1% BSA, 1 mM Probenecid pH7.4 (Sigma-Aldrich Co.)) per well (each vial of Calcium 5 resuspended in 27 mL of assay buffer). Cells were then incubated for 45 minutes at 37° C., 5% CO2. Compound was serially diluted in DMSO (log/half log) before being diluted 1:20 with assay buffer. 7 μl of compound diluted in assay buffer was then added to cells on FLiPR tetra and fluorescence intensity measured for 5 minutes. EC50 values for compounds were determined from ten point half log scale dose-response studies and represent the concentration of compound required to […] maximal response. Curves were generated using the average of duplicate wells for each data point and analyzed using non-linear regression of four parameter dose response. Percentage Relative efficacy (RE) to an EC100 concentration of acetylcholine was reported for all compounds. The results are set out in Table 3 below in which the term “No Response” means that there was no significant response of calcium flux in the assay indicative of agonism.

human M2 receptor = human M2 receptor (Homo sapiens (Human), UniProt P08172); experiment: In vitro M2 functional assay (intracellular calcium, FLiPR Tetra); format: cell-based; conditions: for M2 EC50 / EC50: CHOK1 cells stably expressing human M2 receptor and Gα16, calcium flux, No Response = no significant response of calcium flux indicative of agonism; for activation at 10 µM: response at 10 μM compound, relative to an EC100 concentration of acetylcholine, read-out: M2 % RE @ 10 μM
Chain of human M2 receptor (P08172 whole entry): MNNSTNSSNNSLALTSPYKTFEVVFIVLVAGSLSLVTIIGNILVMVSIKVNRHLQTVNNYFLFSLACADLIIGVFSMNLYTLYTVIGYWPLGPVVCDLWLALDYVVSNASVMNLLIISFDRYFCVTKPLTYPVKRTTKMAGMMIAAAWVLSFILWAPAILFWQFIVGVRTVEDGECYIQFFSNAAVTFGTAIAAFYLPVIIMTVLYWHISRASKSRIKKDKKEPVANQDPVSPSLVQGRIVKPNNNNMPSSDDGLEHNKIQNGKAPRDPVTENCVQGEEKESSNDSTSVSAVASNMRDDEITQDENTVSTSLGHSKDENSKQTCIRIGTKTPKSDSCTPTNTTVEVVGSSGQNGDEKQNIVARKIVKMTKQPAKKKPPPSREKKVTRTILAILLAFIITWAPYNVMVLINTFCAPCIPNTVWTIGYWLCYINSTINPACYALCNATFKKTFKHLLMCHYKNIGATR
Procedure: as §1, §2, §3

| Structure (SMILES) | EC50 (human M4 receptor) | Emax (human M4 receptor) | M2 EC50 (human M2 receptor) | EC50 (human M2 receptor) | activation at 10 µM (human M2 receptor) |
| --- | --- | --- | --- | --- | --- |
| CCOC(=O)N1CCC(N2CCC(c3nc(OC)cc(OC)n3)CC2)CC1 [Example 37, Ethyl 4-[4-(4,6-dimethoxypyrimidin-2-yl)piperidin-1-yl]piperidine-1-carboxylate] | 3340 nM | 39% | No Response | – | – |
| CCOC(=O)N1CCC(N2CCC(c3ccncc3)CC2)CC1 [Example 31, Ethyl 4-[4-(pyridin-4-yl)piperidin-1-yl]piperidine-1-carboxylate] | 2260 nM | 30% | No Response | – | – |
| CCOC(=O)N1CCCC(N2CCC(n3cc(-c4ccc(F)cc4)cn3)CC2)CC1 (centres unmarked) [Example 18, Ethyl 4-{4-[4-(4-fluorophenyl)-1H-pyrazol-1-yl]piperidin-1-yl}azepane-1-carboxylate] | 410 nM | 45% | No Response | – | – |
| CCOC(=O)N1CCCC(N2CCC(n3nccc3CNC(C)=O)CC2)CC1 (centres unmarked) [Example 28, Ethyl 4-{4-[5-(acetamidomethyl)-1H-pyrazol-1-yl]piperidin-1-yl}azepane-1-carboxylate] | 1480 nM | 59% | No Response | – | – |
| CCOC(=O)N1CCCC(N2CCC(n3nccc3C(F)(F)F)CC2)CC1 (centres unmarked) [Example 69, Ethyl 4-{4-[5-(trifluoromethyl)-1H-pyrazol-1-yl]piperidin-1-yl}azepane-1-carboxylate] | 630 nM | 63% | – | > 10000 nM | 21% |
| CCOC(=O)N1CCCC(N2CCC(c3nccn3C)CC2)CC1 (centres unmarked) [Example 9, Ethyl 4-[4-(1-methyl-1H-imidazol-2-yl)piperidin-1-yl]azepane-1-carboxylate] | 1050 nM | 62% | No Response | – | – |
| CCOC(=O)N1CCCC(N2CCC(c3nnc(C(C)C)o3)CC2)CC1 (centres unmarked) [Example 15, Ethyl 4-(4-(5-isopropyl-1,3,4-oxadiazol-2-yl)piperidin-1-yl)azepane-1-carboxylate] | 1280 nM | 44% | No Response | – | – |
| CCOC(=O)N1CCCC(N2CCC(n3nccc3C)CC2)CC1 (centres unmarked) [Example 12, Ethyl 4-[4-(5-methyl-1H-pyrazol-1-yl)piperidin-1-yl]azepane-1-carboxylate] | 520 nM | 82% | – | > 10000 nM | 28% |
| CCCn1ccnc1C1CCN(C2CCCN(C(=O)OCC)CC2)CC1 (centres unmarked) [Example 11, Ethyl 4-[4-(1-propyl-1H-imidazol-2-yl)piperidin-1-yl]azepane-1-carboxylate] | 960 nM | 41% | No Response | – | – |
| CCOC(=O)N1CCCC(N2CCC(n3nccc3C(=O)N(C)C)CC2)CC1 (centres unmarked) [Example 21, Ethyl 4-{4-[5-(dimethylcarbamoyl)-1H-pyrazol-1-yl]piperidin-1-yl}azepane-1-carboxylate] | 2680 nM | 45% | No Response | – | – |
| CCOC(=O)N1CCC(N2CCC(c3nccn3C)CC2)CC1 [Example 1, Ethyl 4-[4-(1-methyl-1H-imidazol-2-yl)piperidin-1-yl]piperidine-1-carboxylate] | 2360 nM | 49% | – | > 10000 nM | 34% |

These reach a lower EC50 (human M4 receptor). Values come first.

| EC50 (human M4 receptor) | Emax (human M4 receptor) | M2 EC50 (human M2 receptor) | EC50 (human M2 receptor) | activation at 10 µM (human M2 receptor) | Structure (SMILES) |
| --- | --- | --- | --- | --- | --- |
| 340 nM | 50% | No Response | – | – | CCOC(=O)N1CCC(CN2CCC(n3nc(C)cc3C)C2)CC1 (centres unmarked) [Example 79, Ethyl 4-{[3-(3,5-dimethyl-1H-pyrazol-1-yl)pyrrolidin-1-yl]methyl}piperidine-1-carboxylate] |
| 320 nM | 55% | No Response | – | – | CCOC(=O)N1CCCC(N2CCC(n3nccc3C#N)CC2)CC1 (centres unmarked) [Example 27, Ethyl 4-[4-(5-cyano-1H-pyrazol-1-yl)piperidin-1-yl]azepane-1-carboxylate] |
| 310 nM | 67% | No response | – | – | CCOC(=O)N1CCC[C@@H](N2CCC(c3cccnc3OC)CC2)CC1 [Example 86, Ethyl (4R)-4-[4-(2-methoxypyridin-3-yl)piperidin-1-yl]azepane-1-carboxylate] |
| 260 nM | 54% | No Response | – | – | CCOC(=O)N1CCCC(N2CCC(c3cccnc3C)CC2)CC1 (centres unmarked) [Example 41, Ethyl 4-[4-(2-methylpyridin-3-yl)piperidin-1-yl]azepane-1-carboxylate] |
| 190 nM | 53% | No Response | – | – | CCOC(=O)N1CCCC(N2CCC(c3cc[nH]n3)CC2)CC1 (centres unmarked) [Example 6, Ethyl 4-[4-(1H-pyrazol-3-yl)piperidin-1yl]azepane-1-carboxylate] |
| 190 nM | 87% | No Response | – | – | CCOC(=O)N1CCCC(N2CCC(c3cccnc3N(C)C)CC2)CC1 (centres unmarked) [Example 65, Ethyl 4-{4-[2-(dimethylamino)pyridin-3-yl]piperidin-1-yl}azepane-1-carboxylate] |
| 180 nM | 61% | No Response | – | – | CCOC(=O)N1CCCC(N2CCC(c3cccc(OC)n3)CC2)CC1 (centres unmarked) [Example 33, Ethyl 4-[4-(6-methoxypyridin-2-yl)piperidin-1-yl]azepane-1-carboxylate] |
| 130 nM | 51% | No Response | – | – | CCOC(=O)N1CCCC(N2CCC(c3nccs3)CC2)CC1 (centres unmarked) [Example 26, Ethyl 4-[4-(1,3-thiazol-2-yl)piperidin-1-yl]azepane-1-carboxylate] |
| 130 nM | 67% | – | > 10000 nM | 26% | CCOC(=O)N1CCCC(N2CCC(c3cccnc3OC(C)C)CC2)CC1 (centres unmarked) [Example 55, Ethyl 4-{4-[2-(propan-2-yloxy)pyridin-3-yl]piperidin-1-yl}azepane-1-carboxylate] |
| 90 nM | 90% | No Response | – | – | CCOC(=O)N1CCC(N2CCC(c3cccnc3OC)CC2)CC1 [Example 34, Ethyl 4-[4-(2-methoxypyridin-3-yl)piperidin-1-yl]piperidine-1-carboxylate] |
| 26 nM | 91% | No response | – | – | CCOC(=O)N1CCC[C@H](N2CCC(c3cccnc3OC)CC2)CC1 [Example 85, Ethyl (4S)-4-[4-(2-methoxypyridin-3-yl)piperidin-1-yl]azepane-1-carboxylate] |
| 22 nM | 84% | No Response | – | – | CCOC(=O)N1CCCC(N2CCC(c3cccnc3OCc3cscn3)CC2)CC1 (centres unmarked) [Example 76, Ethyl 4-{4-[2-(1,3-thiazol-4-ylmethoxy)pyridin-3-yl]piperidin-1-yl}azepane-1-carboxylate] |
| 10 nM | 96% | – | > 10000 nM | 25% | CCOC(=O)N1CCCC(N2CCC(c3cccnc3OC(F)F)CC2)CC1 (centres unmarked) [Example 52, Ethyl 4-{4-[2-(difluoromethoxy)pyridin-3-yl]piperidin-1-yl}azepane-1-carboxylate] |
| 2 nM | 95% | No Response | – | – | CCOC(=O)N1CCCC(N2CCC(c3cc(Cl)cnc3OC)CC2)CC1 (centres unmarked) [Example 58, Ethyl 4-[4-(5-chloro-2-methoxypyridin-3-yl)piperidin-1-yl]azepane-1-carboxylate] |
